For the first experiment, the target named is T1, Cdc7 (BEV coexpressed huCDC7/DBF4) (Homo sapiens, UniProt O00311).
T1 construct: made in house; host or cells: BEV (baculovirus expression vector) co-expression; insect cells are implied but no cell line is named
T1 sequence (O00311 whole entry): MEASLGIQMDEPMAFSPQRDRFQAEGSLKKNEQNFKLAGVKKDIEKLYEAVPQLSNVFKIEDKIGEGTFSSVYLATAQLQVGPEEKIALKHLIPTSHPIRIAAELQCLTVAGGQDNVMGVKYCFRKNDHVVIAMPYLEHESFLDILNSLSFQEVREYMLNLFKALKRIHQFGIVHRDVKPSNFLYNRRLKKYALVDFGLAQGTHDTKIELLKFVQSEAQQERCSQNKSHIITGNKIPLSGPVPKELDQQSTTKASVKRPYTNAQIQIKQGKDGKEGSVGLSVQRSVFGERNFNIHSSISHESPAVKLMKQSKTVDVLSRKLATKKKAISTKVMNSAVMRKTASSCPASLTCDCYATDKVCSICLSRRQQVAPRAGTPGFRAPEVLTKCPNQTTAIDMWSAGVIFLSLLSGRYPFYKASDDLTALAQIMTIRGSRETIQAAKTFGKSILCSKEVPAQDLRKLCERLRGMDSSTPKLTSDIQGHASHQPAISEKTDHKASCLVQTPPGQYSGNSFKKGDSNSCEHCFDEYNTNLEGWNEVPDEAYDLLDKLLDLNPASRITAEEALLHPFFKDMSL
T1 sequence (Q9UBU7 whole entry partner): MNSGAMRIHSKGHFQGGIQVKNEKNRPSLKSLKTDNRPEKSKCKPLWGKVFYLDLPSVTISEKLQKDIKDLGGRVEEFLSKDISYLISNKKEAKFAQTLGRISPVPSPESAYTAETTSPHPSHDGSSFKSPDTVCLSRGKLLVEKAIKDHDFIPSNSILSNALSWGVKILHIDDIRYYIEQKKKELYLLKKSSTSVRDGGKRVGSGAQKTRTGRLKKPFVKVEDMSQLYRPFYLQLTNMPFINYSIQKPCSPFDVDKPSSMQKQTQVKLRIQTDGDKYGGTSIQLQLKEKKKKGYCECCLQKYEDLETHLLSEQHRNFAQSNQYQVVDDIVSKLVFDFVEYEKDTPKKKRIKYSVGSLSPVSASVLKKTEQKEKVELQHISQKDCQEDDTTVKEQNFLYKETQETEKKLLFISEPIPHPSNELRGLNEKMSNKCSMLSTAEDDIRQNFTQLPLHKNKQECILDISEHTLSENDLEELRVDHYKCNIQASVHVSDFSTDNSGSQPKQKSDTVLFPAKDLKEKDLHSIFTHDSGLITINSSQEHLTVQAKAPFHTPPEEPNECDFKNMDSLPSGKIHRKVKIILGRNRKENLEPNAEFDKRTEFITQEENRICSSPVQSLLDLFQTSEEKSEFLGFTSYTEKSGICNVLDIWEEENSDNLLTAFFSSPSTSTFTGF
The experiment can be described thus: Cdc7 enzyme inhibition assay ([33P]ATP, biotinylated peptide substrate, FlashPlate).
Details: not given
In kind it is biochemical. Here is the method: Cdc7 (BEV coexpressed huCDC7/DBF4) is prepared internally. Cdc7 assays are conducted as follows with final concentrations as listed. […] Reactions are quenched after 1 hr by the addition of 90 μL stop buffer (50 mM EDTA, 2M NaCl). […] (Ki) for exemplary compounds.
For `COC1CCC(Nc2cc(-c3c[nH]c4ncccc34)cc(Cl)n2)CC1` (stereo not drawn) [Example 34, 6-chloro-N-(4-methoxycyclohexyl)-4-(1H-pyrrolo[2,3-b]pyridin-3-yl)pyridin-2-amine], the Ki is 0.01 to 0.1 µM.

Take `CC(=O)NC1CCCC(Nc2cc(-c3c[nH]c4ncccc34)cc(Cl)n2)C1` (stereo not drawn) [Example 35, N-(3-{[6-chloro-4-(1H-pyrrolo[2,3-b]pyridin-3-yl)pyridin-2-yl]amino}cyclohexyl)acetamide]: the inhibition constant Ki was in the range of 0.01 to 0.1 µM.

`Fc1cc(Cl)ccc1CNc1cc(-c2c[nH]c3ncccc23)cc(Cl)n1` [Example 36, 6-chloro-N-(4-chloro-2-fluorobenzyl)-4-(1H-pyrrolo[2,3-b]pyridin-3-yl)pyridin-2-amine] had a Ki of 0.01 to 0.1 µM.

The molecule `Clc1cc(-c2c[nH]c3ncccc23)cc(NCc2cccnc2Oc2cccnc2)n1` [Example 37, 6-chloro-N-{[2-(pyridin-3-yloxy)pyridin-3-yl]methyl}-4-(1H-pyrrolo[2,3-b]pyridin-3-yl)pyridin-2-amine] displayed a Ki of 0.01 to 0.1 µM.

As to `Clc1cc(-c2c[nH]c3ncccc23)cc(NCC2CCCNC2)n1` (stereo not drawn) [Example 38, 6-chloro-N-(piperidin-3-ylmethyl)-4-(1H-pyrrolo[2,3-b]pyridin-3-yl)pyridin-2-amine], the Ki lay within 0.01 to 0.1 µM.

`CC(O)CNc1cc(-c2c[nH]c3ncccc23)cc(Cl)n1` (stereo not drawn) [Example 39, 1-{[6-chloro-4-(1H-pyrrolo[2,3-b]pyridin-3-yl)pyridin-2-yl]amino}propan-2-ol]: the Ki was 0.01 to 0.1 µM.

In the case of `CC(C)(CO)CNc1cc(-c2c[nH]c3ncccc23)cc(Cl)n1` [Example 40, 3-{[6-chloro-4-(1H-pyrrolo[2,3-b]pyridin-3-yl)pyridin-2-yl]amino}-2,2-dimethylpropan-1-ol], the Ki is 0.01 to 0.1 µM.

On to `OCCOCCNc1cc(-c2c[nH]c3ncccc23)cc(Cl)n1` [Example 41, 2-(2-{[6-chloro-4-(1H-pyrrolo[2,3-b]pyridin-3-yl)pyridin-2-yl]amino}ethoxy)ethanol], for which the Ki was in the range of 0.01 to 0.1 µM.

`N[C@H]1CC[C@H](Nc2nc(Cl)cc(-c3c[nH]c4ncccc34)n2)CC1` [Example 42, trans-N-[4-chloro-6-(1H-pyrrolo[2,3-b]pyridin-3-yl)pyrimidin-2-yl]cyclohexane-1,4-diamine] gave a Ki of less than 0.01 µM.

The molecule `O[C@H]1CC[C@H](Nc2nc(Cl)cc(-c3c[nH]c4ncccc34)n2)CC1` [Example 44, Trans-4-{[4-chloro-6-(1H-pyrrolo[2,3-b]pyridin-3-yl)pyrimidin-2-yl]amino}cyclohexanol] gave a Ki of less than 0.01 µM.

The molecule `Clc1cc(-c2c[nH]c3ncccc23)nc(NCc2ccccc2)n1` [Example 46, N-benzyl-4-chloro-6-(1H-pyrrolo[2,3-b]pyridin-3-yl)pyrimidin-2-amine] registered a Ki of 0.01 to 0.1 µM.

Turning to `OCC(Cc1ccccc1)Nc1nc(Cl)cc(-c2c[nH]c3ncccc23)n1` (stereo not drawn) [Example 47, 2-{[4-chloro-6-(1H-pyrrolo[2,3-b]pyridin-3-yl)pyrimidin-2-yl]amino}-3-phenylpropan-1-ol], the Ki was in the range of 0.01 to 0.1 µM.

In turn, `COC[C@H](Cc1ccccc1)Nc1nc(Cl)cc(-c2c[nH]c3ncccc23)n1` [Example 48, (S)-4-chloro-N-(1-methoxy-3-phenylpropan-2-yl)-6-(1H-pyrrolo[2,3-b]pyridine-3-yl)pyrimidin-2-amine] registered a Ki of 0.01 to 0.1 µM.

Turning to `Clc1cc(-c2c[nH]c3ncccc23)nc(NC2CCCCC2)n1` [Example 49, 4-chloro-N-cyclohexyl-6-(1H-pyrrolo[2,3-b]pyridin-3-yl)pyrimidin-2-amine], the Ki was less than 0.01 µM.

The experiment is the same for the next values; noted with them: Table 3; enzyme inhibition data (Ki).
For the molecule `CS(=O)(=O)N1CCC(Nc2cc(-c3c[nH]c4ncccc34)cc(Cl)n2)CC1` [Example 51, 6-chloro-N-[1-(methylsulfonyl)piperidin-4-yl]-4-(1H-pyrrolo[2,3-b]pyridin 3-yl)pyridin-2-amine], the Ki was less than 0.01 µM.

As to `O=S(=O)(NC1CCC(Nc2cc(-c3c[nH]c4ncccc34)cc(Cl)n2)CC1)c1ccccc1` (stereo not drawn) [Example 52, N-(4-{[6-chloro-4-(1H-pyrrolo[2,3-b]pyridin-3-yl)pyridin-2-yl]amino}cyclohexyl)benzenesulfonamide], the Ki was less than 0.01 µM.

Molecule `O=S(=O)(Cc1ccccc1)NC1CCC(Nc2cc(-c3c[nH]c4ncccc34)cc(Cl)n2)CC1` (stereo not drawn) [Example 53, N-(4-{[6-chloro-4-(1H-pyrrolo[2,3-b]pyridin-3-yl)pyridin-2-yl]amino}cyclohexyl)-1-phenylmethanesulfonamide] displayed an inhibition constant Ki of less than 0.01 µM.

With `O=S(=O)(NC1CCC(Nc2cc(-c3c[nH]c4ncccc34)cc(Cl)n2)CC1)c1cccnc1` (stereo not drawn) [Example 54, N-(4-{[6-chloro-4-(1H-pyrrolo[2,3-b]pyridin-3-yl)pyridin-2-yl]amino}cyclohexyl)pyridine-3-sulfonamide], the Ki is less than 0.01 µM.

As to `CCCS(=O)(=O)NC1CCC(Nc2cc(-c3c[nH]c4ncccc34)cc(Cl)n2)CC1` (stereo not drawn) [Example 55, N-(4-{[6-chloro-4-(1H-pyrrolo[2,3-b]pyridin-3-yl)pyridin-2-yl]amino}cyclohexyl)propane-1-sulfonamide], the Ki was less than 0.01 µM.

Take `Clc1cc(-c2c[nH]c3ncccc23)cc(NCCN2CCOCC2)n1` [Example 56, 6-chloro-N-[2-(morpholin-4-yl)ethyl]-4-(1H-pyrrolo[2,3-b]pyridin-3-yl)pyridin-2-amine]: the Ki was less than 0.01 µM.

`Oc1cccc(CCNc2cc(-c3c[nH]c4ncccc34)cc(Cl)n2)c1` [Example 57, 3-(2-{[6-chloro-4-(1H-pyrrolo[2,3-b]pyridin-3-yl)pyridin-2-yl]amino}ethyl)phenol] had a Ki of less than 0.01 µM.

Take `CC(C)CNC1CCCC(Nc2cc(-c3c[nH]c4ncccc34)cc(Cl)n2)C1` (stereo not drawn) [Example 58, N-[6-chloro-4-(1H-pyrrolo[2,3-b]pyridin-3-yl)pyridin-2-yl]-N′-(2-methylpropyl)cyclohexane-1,3-diamine]: the Ki is less than 0.01 µM.

`CN(C)C1CCCC(Nc2cc(-c3c[nH]c4ncccc34)cc(Cl)n2)C1` (stereo not drawn) [Example 59, N′-[6-chloro-4-(1H-pyrrolo[2,3-b]pyridin-3-yl)pyridin-2-yl]-N,N-dimethylcyclohexane-1,3-diamine] had a Ki of less than 0.01 µM.

On to `O=C(NC1CCCC1)NC1CCC(Nc2cc(-c3c[nH]c4ncccc34)cc(Cl)n2)CC1` (stereo not drawn) [Example 60, 1-(4-{[6-chloro-4-(1H-pyrrolo[2,3-b]pyridin-3-yl)pyridin-2-yl]amino}cyclohexyl)-3-cyclopentylurea], for which the Ki was less than 0.01 µM.

Turning to `O=S(=O)(N[C@H]1CC[C@H](Nc2cc(-c3c[nH]c4ncccc34)cc(Cl)n2)CC1)C1CC1` [Example 61, N-(trans-4-{[6-chloro-4-(1H-pyrrolo[2,3-b]pyridin-3-yl)pyridin-2-yl]amino}cyclohexyl)cyclopropanesulfonamide], the Ki is less than 0.01 µM.

Take `CCCNC(=O)NC1CCC(Nc2cc(-c3c[nH]c4ncccc34)cc(Cl)n2)CC1` (stereo not drawn) [Example 62, 1-(4-{[6-chloro-4-(1H-pyrrolo[2,3-b]pyridin-3-yl)pyridin-2-yl]amino}cyclohexyl)-3-propylurea]: the inhibition constant Ki is less than 0.01 µM.

`O=C(N[C@H]1CC[C@H](Nc2cc(-c3c[nH]c4ncccc34)cc(Cl)n2)CC1)C1CC1` [Example 63, N-(trans-4-{[6-chloro-4-(1H-pyrrolo[2,3-b]pyridin-3-yl)pyridin-2-yl]amino}cyclohexyl)cyclopropanecarboxamide] displayed a Ki of less than 0.01 µM.

`CC(C)C(=O)NC1CCC(Nc2cc(-c3c[nH]c4ncccc34)cc(Cl)n2)CC1` (stereo not drawn) [Example 64, N-(4-{[6-chloro-4-(1H-pyrrolo[2,3-b]pyridin-3-yl)pyridin-2-yl]amino}cyclohexyl)-2-methylpropanamide] had an inhibitory constant (Ki) of less than 0.01 µM.

As to `O=C(NC1CCC(Nc2cc(-c3c[nH]c4ncccc34)cc(Cl)n2)CC1)c1ccccc1` (stereo not drawn) [Example 65, N-(4-{[6-chloro-4-(1H-pyrrolo[2,3-b]pyridin-3-yl)pyridin-2-yl]amino}cyclohexyl)benzamide], the inhibition constant (Ki) was less than 0.01 µM.

For `O=C(Nc1ccccc1)NC1CCC(Nc2cc(-c3c[nH]c4ncccc34)cc(Cl)n2)CC1` (stereo not drawn) [Example 66, 1-(4-{[6-chloro-4-(1H-pyrrolo[2,3-b]pyridin-3-yl)pyridin-2-yl]amino}cyclohexyl)-3-phenylurea], the Ki was less than 0.01 µM.

On to `Clc1cc(-c2c[nH]c3ncccc23)cc(NC2CCCC(NCc3cccnc3)C2)n1` (stereo not drawn) [Example 67, N-[6-chloro-4-(1H-pyrrolo[2,3-b]pyridin-3-yl)pyridin-2-yl]-N′-(pyridin-3-ylmethyl)cyclohexane-1,3-diamine], for which the Ki is less than 0.01 µM.

For the molecule `Clc1cc(-c2c[nH]c3ncccc23)cc(NC2CCCC(NC3CCC3)C2)n1` (stereo not drawn) [Example 68, N-[6-chloro-4-(1H-pyrrolo[2,3-b]pyridin-3-yl)pyridin-2-yl]-1-N′-cyclobutylcyclohexane-1,3-diamine], the Ki is less than 0.01 µM.

On to `O=C(NC1CCCC(Nc2cc(-c3c[nH]c4ncccc34)cc(Cl)n2)C1)C1CC1` (stereo not drawn) [Example 69, N-(3-{[6-chloro-4-(1H-pyrrolo[2,3-b]pyridin-3-yl)pyridin-2-yl]amino}cyclohexyl)cyclopropanecarboxamide], for which the Ki was less than 0.01 µM.

`CCCN1CCC(C(=O)NC2CCCC(Nc3cc(-c4c[nH]c5ncccc45)cc(Cl)n3)C2)CC1` (stereo not drawn) [Example 70, N-(3-{[6-chloro-4-(1H-pyrrolo[2,3-b]pyridin-3-yl)pyridin-2-yl]amino}cyclohexyl)-1-propylpiperidine-4-carboxamide]: the Ki was less than 0.01 µM.

On to `O=C(NC1CCCC(Nc2cc(-c3c[nH]c4ncccc34)cc(Cl)n2)C1)c1cc[nH]n1` (stereo not drawn) [Example 71, N-(3-{[6-chloro-4-(1H-pyrrolo[2,3-b]pyridin-3-yl)pyridin-2-yl]amino}cyclohexyl)-1H-pyrazole-3-carboxamide], for which the Ki was less than 0.01 µM.

Turning to `Clc1cc(-c2c[nH]c3ncccc23)cc(NC2CCCC(NCC3CCCNC3)C2)n1` (stereo not drawn) [Example 72, N-[6-chloro-4-(1H-pyrrolo[2,3-b]pyridin-3-yl)pyridin-2-yl]-N′-(piperidin-3-ylmethyl)cyclohexane-1,3-diamine], the Ki was less than 0.01 µM.

The values are drawn from patent US8435980B2 (AbbVie Inc., priority 2009, dated 2013).
